Consider 14 compounds from patent US20090018118A1, “HETEROCYCLIC COMPOUNDS” (priority 2005, published 2009).

Series [1] has as its system cholesterol biosynthesis in HepG2 cells. Nature of the series: Metabolic labeling of HepG2 cells with [3H]acetate; radio-HPLC sterol profile (inhibition of cholesterol biosynthesis). Conditions: HepG2; for activity at 10 µM: Homo sapiens, 24 h, Table I, sterol level normalized to normal medium (1.00), mean of 4 experiments; for activity at 10 µM / FF-MAS / cholesterol / desmosterol / lanosterol / lathosterol / zymosterol+7-dehydrocholesterol: 10 μM compound; for FF-MAS / cholesterol / desmosterol / lanosterol / lathosterol / zymosterol+7-dehydrocholesterol: Table II (arranged by sterol profile), normalized to normal medium (1.00). The series is classed as cell-based, human. As to the method: In accordance with the aims of the invention, the effect of the novel compounds on inhibition of cholesterol biosynthesis is assessed. An ex vivo method of metabolic labeling of immortal human hepatocytes is employed. The radioactively labeled early precursor of cholesterol [3H]acetate is added to cells with or without addition of an active new compound.
An ex vivo method of metabolic labeling of immortal human hepatocytes is employed. The radioactively labeled early precursor of cholesterol [3H]acetate is added to cells with or without addition of an active compound.
Cell culture incubation with potential inhibitors of cholesterol biosynthesis and statins Human hepatoma cell line (HepG2-ATCC No. HB-8065) is split in the recommended ratio (1:2-3) into 75 cm^2 cell flasks using two flasks per experimental condition. Cells are incubated at 37° C. with 5% CO2 in Dulbeco's modified Eagle medium (DMEM high (Sigma)) containing 5% calf serum (Sigma) and 1% L-glutamine (Sigma). After 24-hours-culturing in the growth medium, the medium is replaced with the one supplemented with 10 μM concentration of a LK compound, potential inhibitor of cholesterol biosynthesis. 10 μM solution of atorvastatin, inhibitor of HMG-CoA reductase, serves as a positive control.
After 24 hours the growth medium is changed and [^3H]acetate (NEN™ Life Science Products) added in a concentration of 40 μCi per ml of the medium (400 μCi per flask). After 4 hours cells are harvested using 2 ml of trypsin (Sigma) and the cell pellet is resuspended in 1 ml of distilled water. Cells are homogenized using the freeze and thaw method. From cell homogenate sterols are extracted and protein concentration determined using the Bio-Rad reagent.
Homogenates are transferred into 4 ml glass vial and sterols are extracted in 3 ml of extraction solution (75% n-heptane: 25% isopropanol (vol./vol.)) with ergosterol as an internal standard. For better extraction 100 μl of 0.3M NaH2PO4 (pH=1.0) is added. Closed vials are vigorously shaken (1800 rpm) for 2 hours. After extraction procedure vials are centrifuged (2000 g, 10 min) and the organic phase is transferred to fresh conical glass tubes. Extraction procedure is repeated using 1 ml of extraction solution for 15 min. Organic phases are pooled. Primary extracts are dried in vacuum centrifuge, redissolved in 3 ml of n-heptane, and incubated for 10 min at room temperature with mild shaking. After centrifugation (10 min, 2000 g) extracts are transferred into fresh glass tubes and stored in dark and cold.
The organic phase is dried, reconstituted in mobile phase for reversed phase HPLC separation and loaded onto a-HPLC column, Prism-RPN, 5 μm, 250×4,6 mm running in 100% acetonitrile at 1.00 ml/min at 40° C. temperature. Scintillation liquid is added after UV detection at 30 ml/h, at room temperature, to evaluate tritium labeled sterols on a radio detector.
Sterols are determined by comparing the eluted peaks with runs of commercial standards of lanosterol, ergosterol, desmosterol, zymosterol, 7-dehydrocholesterol, lathosterol and cholesterol or laboratory standards (FF-MAS-4,4-Dimethylcholesta-8(9),14,24-triene-3β-ol- and T-MAS-4,4-Dimethylcholesta8(9),24,diene-3,6-ol, Laboratory of Reproductive Biology, The Juliane Marie Center for Children, Women and Reproduction, University Hospital of Copenhagen, DK-2100 Copenhagen, Denmark). Results were normalized on ergosterol quantity and protein concentration. Results are presented as a mean from 4 separated experiments.
The influence of a 10 μM solution of novel LK-substances on cholesterol biosynthesis in the assay on HepG2 cells is presented in Table I. Compounds are arranged according to the building blocks, three of them are 2-pyridineethanols, 2-pyridineethylpiperazines and pyridinemethylpiperazines.
Normal medium pertains to cell cultures without a compound of the invention. Its sterol levels were used for normalization. 10 μM solution of atorvastatin serves as a positive control.

[2] abbreviates: read-out: zymosterol+7-dehydrocholesterol.

What is called melting point is the temperature, or range, at which the solid turns liquid.

Counter-ions that a name gives are not always drawn. Like-named read-outs stand apart in the source and are kept apart here.

The compound `COc1ccc(CN2CCN(CCc3ccccc3)CC2)cn1` (as salt: hydrobromid) [LK-9106, 1-((6-Methoxypyridin-3-yl)methyl)-4-phenethylpiperazine trihydrobromide] came in with a melting point of 215 to 217 °C.

Compound `c1ccc(CCN2CCN(CCc3cccnc3)CC2)cc1` (as salt: hydrobromid) [LK-9100, 1-Phenethyl-4-(2-(pyridine-3-yl)ethyl)piperazine trihydrobromide] had a melting point of 219 to 222 °C.

Regarding `Clc1ccc(CCN2CCN(CCc3ccncc3)CC2)cc1Cl` (as salt: hydrobromid) [LK-9135, 1-(3,4-Dichlorophenethyl)-4-(2-(pyridin-4-yl)ethyl)piperazine trihydrobromide], the melting point is 253 to 255 °C.

`Clc1ccc(CCN2CCN(CCc3ccccn3)CC2)cc1Cl` (as salt: hydrobromid) [LK-9137, 1-(3,4-Dichlorophenethyl)-4-(2-(pyridin-2-yl)ethyl)piperazine trihydrobromide] came in with a melting point of 207 to 209 °C.

Consider `Fc1ccc(CCN2CCN(CCc3ccncc3)CC2)cc1F` (as salt: hydrobromid) [LK-9131, 1-(3,4-di-Fluorophenethyl)-4-(2-(pyridin-4-yl)ethyl)piperazine trihydrobromide], for which the melting point lay in the range of 256 to 259 °C.

Consider `FC(F)(F)c1cnc(N2CCCN(CCc3ccccc3)CC2)c(Cl)c1` (as salt: hydrobromid) [LK-9115, 1-(3-Chloro-5-(trifluoromethyl)pyridine-2-yl)-4-phenethyl-1,4-diazepane trihydrobromide], for which the melting point lay within 175 to 177 °C.

`OC(CN1CCN(Cc2ccc(F)cc2)CC1)c1cccnc1` (stereo not drawn) (as salt: hydrobromid) [LK-9148, 2-(4-(4-Fluorobenzyl)piperazine-1-yl)-1-(pyridine-3-yl)ethanol trihydrobromide] gave a melting point of 220 to 223 °C.

`FC(F)(F)c1ccc(CN2CCN(CCc3ccccc3)CC2)cn1` (as salt: hydrobromid) [LK-9107, 1-Phenethyl-4-((6(trifluoromethyl)pyridine-3-yl)methyl)piperazine trihydrobromide] showed a melting point of 225 to 228 °C.

On to `OC(CN1CCN(c2ccc(F)cc2)CC1)c1cccnc1` (stereo not drawn) (as salt: hydrobromid) [LK-9144, 2-(4-(4-Fluorophenyl)piperazine-1-yl)-1-(pyridine-3-yl)ethanol trihydrobromide], for which the melting point was 198 to 201 °C.

In turn, `OC(CN1CCN(CCc2ccccc2)CC1)c1ccc2ccccc2c1` (stereo not drawn) [LK-9111B, 1-(Naphthalen-2-yl)-2-(4-phenethylpiperazin-1-yl)ethanol] showed a melting point of 126 to 129 °C. In addition, the “FF-MAS accumulation (in words)” value in series [1] (10 μM) is “notably accumulate FF-MAS”. For the same compound, the “lanosterol level (in words)” value in series [1] (10 μM, relative to normal medium) is listed as “indicates lanosterol accumulation”. Besides, the activity at 10 µM in series [1] (read-out: FF-MAS) worked out at 901%. In addition, the activity at 10 µM in series [1] (read-out: cholesterol) was 0%. In addition, in series [1] (read-out: desmosterol), the activity at 10 µM was found to be 0%. The activity at 10 µM in series [1] (read-out: lanosterol) was found to be 197%. Moreover, the activity at 10 µM in series [1] (read-out: lathosterol) came out at 46%. Besides, the activity at 10 µM in series [1] (setting [2]) came to 171%. In addition, in series [1], the FF-MAS is 9.01, the cholesterol amounted to 0.00, the desmosterol is 0.00 and the lanosterol stood at 1.97. In series [1], the lathosterol amounted to 0.46 and the “zymosterol+7-dehydrocholesterol” value is reported as 1.71.

`Fc1ccc(CCN2CCN(CCc3ccccn3)CC2)cc1F` (as salt: hydrobromid) [LK-9138, 1-(3,4-Difluorophenethyl)-4-(2-(pyridin-2-yl)ethyl)piperazine trihydrobromide] yielded a melting point of 212 to 213 °C.

`c1ccc(CCN2CCN(CCCc3cccnc3)CC2)cc1` (as salt: hydrobromid) [LK-9140, 1-Phenethyl-4-(3-(pyridine-3-yl)propyl)piperazine trihydrobromide] had a melting point of 262 to 264 °C.

For `OC(CN1CCN(CCc2ccccc2)CC1)c1cccnc1` (stereo not drawn) (as salt: hydrobromid) [LK-980, 2-(4-Phenethylpiperazine-1-yl)-1-(pyridine3-yl)-1-ethanol trihydrobromide], the melting point lay in the range of 178 to 181 °C.

As to `OC(CN1CCN(c2ccc(F)cc2)CC1)c1cccnc1` (stereo not drawn) [LK-9144, 2-(4-(4-Fluorophenyl)piperazine-1-yl)-1-(pyridine-3-yl)ethanol trihydrobromide], the activity at 10 µM in series [1] (read-out: FF-MAS) amounted to 99%. Also, the activity at 10 µM in series [1] (read-out: cholesterol) turned out to be 9%. Further, the activity at 10 µM in series [1] (read-out: desmosterol) is 5%. In series [1] (read-out: lanosterol), the activity at 10 µM stood at 88%. Also, the activity at 10 µM in series [1] (read-out: lathosterol) is 56%. For the same compound, the activity at 10 µM in series [1] (setting [2]) came out at 150%. In series [1], this compound came in with an FF-MAS of 0.99, a cholesterol of 0.09, a desmosterol of 0.05 and a lanosterol of 0.88. In series [1], the lathosterol was 0.56 and the “zymosterol+7-dehydrocholesterol” value is 1.50.
